US20250320443A1, “Human Brain Organoid, methods for making the brain organoid, and methods of using the brain organoid for high throughput rapid screening and/or evaluation of agents” (NeyroblastGX LLC, priority 2023, published 2025)

Tests used:
[1] = test system: blood CSF barrier brain OrG (ChP OrG); experiment: ChP OrG drug permeability into CSF (optical density of collected CSF); format: cell-based, human; details: 72 h, SLCP Cur 500 μM, CSF collected via syringe
Procedure: (§1) FIG. 6A-6H. ChP OrG efficiently screens drug permeability. (FIG. 6A) We have used curcumin (Cur), a natural polyphenolic antioxidant that can disaggregate Amyloid beta (AB) and tau. (FIG. 6B) We have prepared the Cur with H2O and lipids to generate a solid lipid curcumin particle (SLCP). […] (FIG. 6D-6F) We added SLCP and non-formulated (H2O dissolved) Cur to the blood CSF barrier brain OrG (ChP OrG) for 72 h and obtained images. (FIG. 6G) We then collected CSF via a syringe and processed it to measure optical density using a plate reader to determine whether SLCP Cur (500 μM) was permeable into CSF. […] Our novel B-CSFb grown on an HT electrode plate is highly efficient in studying drug permeability on the HT scale and provides insight into using our ChP OrG to accelerate the drug development process for various CNS diseases. Scale bar 100 μm.
To generate ChP OrG, we use methods similar to those used to generate cCerebral OrG, except for the composition of OrGspheroid SRB media, which contained 50% KSR, 0.1% lipid-rich albumin (AlbuMAX), including all other components as stated in Example 1. For ChP OrG, neural induction was up to 9 days. Neural induction medium was the same as Example 2. Further, neural-induced OrGspheroid (>500 μm) was seeded with gel-matrix domes with a volume of OrGspheroid to MvECs at a 1:20 ratio. […]

[2] = Preparation of curcumin with H2O (visual); format: physicochemical; details: glass vial, non-formulated
Procedure: as §1

[3] = test system: synaptophysin and PSD-95 in cCerebral OrG; experiment: ICC of synaptic marker proteins in cCerebral OrG injected with AD toxic proteins; format: cell-based, human; details: AB or tau alone, injected twice with 10-50 μl (1 mg/ml)
Procedure: FIG. 8A-8D. Verify compatibility to screening NGL ready-to-use brain OrG in other screening platforms with multiple agents. (FIG. 8A) NGL cCerebral was injected twice with 10-50 μl (1 mg/ml) of Alzheimer's disease (AD) toxic proteins (AB and tau oligomers). (FIG. 8B) We found AB and tau together, especially 50 μg concentration, reduced in higher levels of pre- and post-synaptic density marker proteins (synaptophysin and PSD-95) compared to 10 μg concentrations using ICC. […] (FIG. 8C) We compared synaptic loss with the electrode plate signal developed by Applied Biophysics (ABP). We have plated our cCerebral OrG onto ABP electrodes with gel-matrix twice coating to attach efficiently onto cCerebral OrG onto electrodes. Usually, marketed electrode attaching floating OrG tends to be challenging. OrG often slips or moves away from the electrode, thus needing twice or triple-coating layers with gels, providing a great insight into our floating electrode plate novelty compared to other marketed electrodes. After the cCerebral OrG attachment was maintained and grown on the electrode plate for one week and treated with or without the combination of AB and tau (10 and 50 μg).
ICC is a common cellular protein or antigen-detecting and visualization technique that can recognize the target of interest or specific marker expression in cells via quantification imaging. […]

brain OrG = experiment: NGL HT electrode plate signal of brain OrG; format: cell-based, human; details: 64000 Hz
Excerpt: HT electroconductive sensing array combined with our optimized brain OrG is the first innovative technology that can be marketed for floating brain OrG for screening pathogens, drugs, and toxicity at a rapid and robust scale. Brain OrG-specific shape 1-3 mm range grown on an electroconductive plate designed and developed by NGL with pay-based service to obtain ECIS base electrode with a desired signal with or without agents. ECIS here refers to electric cell-substrate impedance sensing. We first developed 8 well plates with an electrode. […] We used a nanofarads capacitance (nF) signal curve at 64000 Hz. We determined that the media sample (without OrG, baseline) average signal is 3.7 nF compared to cerebral OrG (˜2 nF), and the same measurement was also acquired by resistance (Ohms).
To determine HT screening various agents, we designed and developed a next-generation HT electrode plate where brain OrG can grow in floating conditions with electrode chambers that can control OrG size without batch-to-batch variations. To develop these electrode sensor chambers (FIG. 7A-7B), we have designed and developed a typical 8×12 configuration that allows 96 samples to be measured and can be upgraded to 384 wells. […] These converters will sample at four times the excitation frequency, thus allowing both the amplitude and phase of the signal at V1 to V2 be measured with an algorithm.

Compound: COc1cc(/C=C/C(=O)CC(=O)/C=C/c2ccc(O)c(OC)c2)ccc1O [non-formulated Cur, curcumin]
- Cur concentration in CSF (permeable into CSF / B-CSFb) [1]: not detected in CSF
- Cur concentration in CSF (permeable into CSF / B-CSFb) ([1]; listed as unformulated Cur): undetected in CSF
- behaviour when prepared with H2O [2]: precipitated on the bottom of the glass vial

Compound: AB: synthetic amyloid-beta (AB) oligomers, Alzheimer's disease toxic protein
- synaptic proteins (synaptophysin and PSD-95) [3]: unable to significantly reduce synaptic proteins
- brain OrG-derived toxic response signal compared to untreated brain OrG (brain OrG): significantly and sensitively differentiated
